# What was measured:
# [1] = in humans; cited from earlier work
# [2] = system: Clostridioides difficile ATCC 700057; assay: MIC, agar dilution, reference strains of anaerobic bacteria; assay type: cell-based; details: ATCC700057
# [3] = system: Clostridioides difficile ATCC 43255; assay: as above; assay type: cell-based; details: ATCC43255
# [4] = system: Clostridioides difficile ATCC BAA-1803; assay: as above; assay type: cell-based; details: ATCCBAA1803
# [5] = system: Clostridioides difficile ATCC BAA-1870; assay: as above; assay type: cell-based; details: ATCCBAA1870
# [6] = system: Clostridium perfringens ATCC 13124; assay: microbe, parasite or virus in culture; assay type: cell-based; details: ATCC13124
# [7] = system: Peptostreptococcus anaerobius ATCC 27337; assay: MIC, agar dilution, reference strains of anaerobic bacteria; assay type: cell-based; details: ATCC27337
# [8] = system: Peptoniphilus asaccharolyticus ATCC 14963; assay: as above; assay type: cell-based; details: ATCC14963
# Parvimonas micra KUB3000 = assay: as above; assay type: cell-based
# [9] = system: Finegoldia magna ATCC 29328; assay: as above; assay type: cell-based; details: ATCC29328
# [10] = system: Eggerthella lenta ATCC 43055; assay: as above; assay type: cell-based; details: ATCC43055
# Olsenella uli KUB3012 = assay: as above; assay type: cell-based
# [11] = system: Bulleidia extructa KUB3013; assay: as above; assay type: cell-based
# Atopobium rimae KUB3014 = assay: as above; assay type: cell-based; details: Lancefieldella rimae
# [12] = system: Propionibacterium acnes ATCC 11827; assay: as above; assay type: cell-based; details: Cutibacterium acnes, ATCC11827
# [13] = system: Actinomyces odontolyticus ATCC 17929; assay: as above; assay type: cell-based; details: Schaalia odontolytica, ATCC17929
# [14] = system: Bacteroides fragilis ATCC 25285; assay: as above; assay type: cell-based; details: ATCC25285
# [15] = system: Bacteroides fragilis KUB2982; assay: as above; assay type: cell-based
# [16] = system: Bacteroides fragilis KUB2983; assay: as above; assay type: cell-based
# [17] = system: Bacteroides thetaiotaomicron ATCC 29741; assay: as above; assay type: cell-based; details: ATCC29741
# [18] = system: Bacteroides thetaiotaomicron KUB2984; assay: as above; assay type: cell-based
# [19] = system: Bacteroides ovatus KUB3009; assay: as above; assay type: cell-based
# [20] = system: Prevotella histicola KUB2989; assay: as above; assay type: cell-based
# [21] = system: Prevotella intermedia KUB2991; assay: as above; assay type: cell-based
# [22] = system: Prevotella melaninogenica KUB3005; assay: as above; assay type: cell-based
# [23] = system: Prevotella buccae KUB2992; assay: as above; assay type: cell-based; details: Segatella buccae
# [24] = system: Fusobacterium varium ATCC 27725; assay: as above; assay type: cell-based; details: ATCC27725
# [25] = system: Fusobacterium nucleatum ATCC 25586; assay: as above; assay type: cell-based; details: ATCC25586
smiles,measurement,setting,value
O=C(O)c1c(F)ccc2c1OB(O)[C@@H]1C[C@H]21 [xeruborbactam],protein binding rate,[1],over 90%
"Cc1ncc([N+](=O)[O-])n1CCO [Metronidazole, metronidazole]",MIC,[2],0.5 µg/mL
same,MIC,[3],1 µg/mL
same,MIC,[4],2 µg/mL
same,MIC,[5],1 µg/mL
same,MIC,[6],2 µg/mL
same,MIC,[7],0.5 µg/mL
same,MIC,[8],1 µg/mL
same,MIC,Parvimonas micra KUB3000,0.5 µg/mL
same,MIC,[9],2 µg/mL
same,MIC,[10],1 µg/mL
same,MIC,Olsenella uli KUB3012,4 µg/mL
same,MIC,[11],2 µg/mL
same,MIC,Atopobium rimae KUB3014,1 µg/mL
same,MIC,[12],> 64 µg/mL
same,MIC,[13],> 64 µg/mL
same,MIC,[14],1 µg/mL
same,MIC,[15],2 µg/mL
same,MIC,[16],0.5 µg/mL
same,MIC,[17],2 µg/mL
same,MIC,[18],1 µg/mL
same,MIC,[19],1 µg/mL
same,MIC,[20],2 µg/mL
same,MIC,[21],1 µg/mL
same,MIC,[22],1 µg/mL
same,MIC,[23],2 µg/mL
same,MIC,[24],0.5 µg/mL
same,MIC,[25],≤ 0.125 µg/mL
